From patent publication US20160347807A1, “TARGETING P53 AND ITS DNA-BINDING DOMAIN” (UNIVERSITY OF UTAH RESEARCH DOUNDATION, priority 2014, published 2016)
“Also recorded” adds a separate entry of the source.

Experiments:
T47D cells [1] = test: TMRE assay (MOMP) in T47D cells; format: cell-based, human; details: 36 h after transfection
Method: 36 h after transfection T47D cells were incubated with 100 nM tetramethylrhodamineethylester (TMRE) (Invitrogen) for 30 min at 37° C. T47D cells were pelleted and resuspended in 300 μL annexin-V binding buffer (1×) (Invitrogen). Only EGFP positive cells were analyzed by using the FACS Canto-II (BD-BioSciences) with FACS Diva software. EGFP was excited with the 488 nm laser with emission filter 530/35 and TMRE was excited with the 561 nm laser with the emission filter 585/15. Mitochondrial depolarization (loss in TMRE intensity) correlates with an increase in MOMP. Independent transfections of each construct were tested three times (n=3).
36 h after transfection T47D cells were incubated with 100 nM tetramethylrhodamine, ethylester (TMRE) (Invitrogen) for 30 min at 37° C., pelleted and resuspended in 300 μL annexin-V binding buffer (1×) (Invitrogen). The FACS Canto-II with FACS Diva software was used to analyze only EGFP positive cells (excited at 488 nm with emission 530/35) stained with TMRE (excited at 561 nm laser with the emission 585/15). Loss in TMRE intensity represents mitochondrial depolarization, which correlates with an increase in mitochondrial outer membrane permeabilization (MOMP). Independent transfections of each construct were assayed three times (n=3). The highest MOMP value was set as 100% and the lowest as 0% (relative MOMP) as before.

H1373 cells [2] = test: 7-AAD assay in H1373 cells; format: cell-based, human; details: H1373 (p53 null), 48 h after transfection
Method: (§1) Transfected T47D, MCF-7, MDA-MB-231, HeLa and H1373 cells were pelleted and resuspended in 500 μL PBS (Invitrogen) containing 1 μM 7-aminoactinomycin D (7-AAD) (Invitrogen) for 30 min prior to analysis following the recommended protocol from the manufacturer. The assay was performed 48 h after transfection for T47D, MCF-7 and H1373 and 24 h after transfection for MDA-MB-231 and HeLa. Only EGFP positive cells were analyzed by using the FACS Canto-II (BD-BioSciences) with FACS Diva software. EGFP and 7-AAD were excited with the 488 nm laser, and were detected at 507 nm and 660 nm, respectively. Independent transfections of each construct were tested three times (n=3).
(§2) Transfected T47D, H1373, SKOV-3 and HeLa cells were pelleted and re-suspended in 500 μL PBS (Invitrogen) containing 1 μM 7-aminoactinomycin D (7-AAD) (Invitrogen) for 30 min prior to analysis. T47D and H1373 cells were analyzed 48 h after transfection, while SKOV-3 and HeLa cells were analyzed 24 h after transfection (time points optimized empirically). Only EGFP positive cells were assayed using the FACS Canto-II (BD-BioSciences) with FACS Diva software as previously. EGFP and 7-AAD were excited at 488 nm, and detected at 507 nm and 660 nm, respectively. Independent transfections of each construct were assayed three times (n=3). The highest value (EGFP positive cells stained with 7-AAD) was set at 100%, and the lowest at 0% (relative 7-AAD) as previously.

p53-Luc Cis-Reporter = test: p53 reporter gene (dual luciferase) assay in T47D cells; format: cell-based, human; details: 24 h post transfection
Method: Luminescence was detected 24 h post transfection using PlateLumino (Stratec Biomedical Systems, Birkenfeld, Germany). Independent transfections of each constructs were assayed three times (n=3). The highest value was set at 100% and lowest value (untreated cells) was set as 0% (relative luminescence).

SKOV-3 cells = test: 7-AAD assay in SKOV-3 cells; format: cell-based, human; details: SKOV-3 (p53 null), 24 h after transfection
Method: as §2

T47D cells [3] = test: Caspase-9 assay (SR FLICA) in T47D cells; format: cell-based, human; details: 48 h after transfection
Method: T47D cells were probed 48 h after transfection using SR FLICA Caspase-9 Assay Kit (Immunochemistry Technologies, Bloomington, Minn.). Cells were incubated with SR FLICA Caspase-9 reagent for 60 min per manufacturer's recommendations, pelleted and resuspended in 300 μL 1× wash buffer (Immunochemistry Technologies). Only EGFP positive cells were analyzed by using the FACS Canto-II (BD-BioSciences) with FACS Diva software. EGFP and FLICA were excited with the 488 nm (emission filter 530/35) and the 561 laser (emission filter 585/15), respectively. Independent transfections of each construct were tested three times (n=3).
As previously described, 48 h after transfection, T47D cells were tested with SR FLICA Caspase-9 Assay Kit (Immunochemistry Technologies, Bloomington, Minn.). Cells were incubated with SR FLICA Caspase-9 reagent for 60 min, pelleted and re-suspended in 300 μL, 1× wash buffer (Immunochemistry Technologies). The FACS Canto-II with FACS Diva software was used to analyzed only EGFP positive cells stained with caspase-9, both were excited with the 488 nm (emission filter 530/35) and the 561 nm laser (emission filter 585/15), respectively. Independent transfections of each construct were assayed three times (n=3). The highest value (EGFP positive cells stained with caspase-9) was set as 100% and the lowest as 0% (relative caspase-9).

HeLa cells = test: 7-AAD assay in HeLa cells; format: cell-based, human; details: 24 h after transfection
Method: as §1, §2

T47D cells [4] = test: 7-AAD assay in T47D cells; format: cell-based, human; details: 48 h after transfection, EGFP positive cells only
Method: as §1, §2

T47D cells [5] = test: Rescue experiment using BFP-Bcl-XL (7-AAD) in T47D cells; format: cell-based, human; details: 48 h after transfection, Bcl-XL overexpression
Method: T47D cells were co-transfected with 1 pmol of EGFP constructs and 1 pmol of BFP-Bcl-XL (BFP tag is necessary for gating Bcl-XL transfected cells). 48 h after transfection the 7-AAD assay was performed as described above. FACSCanto-II (BD-BioSciences) and FACSDiva software were used for EGFP and BFP gating. Excitation was set at 488 nm, and detected at 507 nm and 660 nm for EGFP and 7-AAD, respectively. BFP was excited at 405 nm and detected at 457 nm. Independent transfections of each construct were tested three times (n=3).

T47D cells [6] = test: Annexin V assay in T47D cells; format: cell-based, human; details: 48 h after transfection
Method: 48 h after transfection, T47D cells were pelleted and resuspended in 400 μL of annexin-V binding buffer (Invitrogen) and incubated with 5 μL of annexin-APC (annexin-V conjugated to allophycocyanin, Invitrogen) for 15 min as before. Only transfected cells were analyzed as mentioned in 7-AAD assay. EGFP and APC were excited at 488 nm and 635 nm wavelengths, respectively and detected at their corresponding 507 nm and 660 nm wavelengths. Independent transfections of each construct were tested three times (n=3).

MCF-7 = test: 7-AAD assay in MCF-7 cells; format: cell-based, human; details: MCF-7, 48 h post transfection
Method: as §1

T47D cells [7] = test: Colony forming assay in T47D cells; format: cell-based, human; details: eight days after treatment
Method: Transfected T47D cells were harvested 24 h post transfection and resuspended in RPMI (Invitrogen) at a concentration of 3.0×10^5 cells/mL. The Cytoselect® 96-well cell transformation assay (Cell Biolabs, San Diego, Calif.) was used following manufacturer's recommendations. Equal amount of 1.2% Agar Solution, 2×DMEM/20% FBS media, and cell suspension (1:1:1) were mixed and 75 μL of the mixture was added to a 96-well plate containing a solidified base agar layer (50 μL of previously solidified 1.2% Agar Solution), and allowed to solidify at 4° C. for 15 min. The following steps were performed according to the manufacture's recommendations. A Spectra Max M2 plate reader (Molecular Devices, Sunnyvale, Calif.) was used to detect fluorescence using a 485/520 nm filter set. Independent transfections of each construct were tested three times (n=3).

MDA-MB-231 = test: 7-AAD assay in MDA-MB-231 cells; format: cell-based, human; details: MDA-MB-231, 24 h after transfection
Method: as §1

T47D cells [8] = test: TUNEL assay in T47D cells; format: cell-based, human; details: 48 h after transfection
Method: T47D cells were harvested 48 h after transfection. In situ Death Detection Kit, TMR red (Roche, Mannheim, Germany) was used following manufacturer's recommendations as before. Cells were resuspended in PBS (Invitrogen) and analyzed via the FACSAria-II (BD-Biosciences, University of Utah Core Facility). EGFP and TMR red were excited at 488 nm and 563 nm, respectively, and FACSDiva software was used to analyze the data. Independent transfections of each construct were tested three times (n=3).

H1373 cells [9] = test: 7-AAD rescue experiment in H1373 cells with or without p53R248Wmut; format: cell-based, human; details: H1373, 48 h post transfection; for apoptotic activity (7-AAD) when co-transfected with p53R248Wmut: dominant negative mutant overexpressed
Method: E-XL was created by inserting MTS from XL into EGFP-C1 vector. Lipofectamine was used as the transfection reagent as before. 48 h post transfection, cells were stained as described in the 7-AAD assay and gated for EGFP and BFP using the FACSCanto-II (BD-BioSciences) and FACSDiva software. Excitation for BFP was set at 405 nm and detected at 457 nm. The means from three separate experiments (n=3) were analyzed using two-way ANOVA with Bonferroni's post hoc test.

endogenous Bcl-XL = molecular target: T1, endogenous Bcl-XL (Homo sapiens, UniProt Q07817); test: Co-immunoprecipitation with anti-GFP antibody, western blot for Bcl-XL; format: binding; details: T47D lysate 24 h post transfection, anti-GFP pull-down
T1 construct: endogenous in cells; host or cells: T47D human breast tumor cells
Method: Anti-GFP antibody (ab290, Abcam) was coupled to dynabeads using Dynabeads Antibody Coupling Kit (Invitrogen). 24 h post transfection, T47D cells were prepared using the Dynabeads Co-Immunoprecipitation Kit (Invitrogen). Cell pellets were lysed using extraction buffer B (1×IP, […] NaCl, 2 mM MgCl2, 1 mM DTT, 1% protease inhibitor). The lysate was incubated for 30 min at 4° C. with 1.5 mg of dynabeads coupled with anti-GFP antibody, and co-IP was performed per the company's protocol. The final protein complex was denatured and western blot was performed by using Bcl-XL antibody (ab 2568, Abcam).

Q: What does the source list for “p53-BakMTS: MTS from Bak fused to the C-terminus of EGFP-p53”?
A: % MOMP induction (loss of TMRE fluorescence) (T47D cells [1]): not significantly higher from wt p53; 7-AAD positive cells (late apoptosis) (H1373 cells [2]): statistically higher from their negative control E-BakMTS; nuclear transcriptional activity (relative luminescence) (p53-Luc Cis-Reporter): no nuclear activity; 7-AAD positive cells (late apoptosis) (SKOV-3 cells): significantly higher than their negative control E-BakMTS; caspase-9 activation (T47D cells [3]): significant effect; also recorded: not significantly higher from wt p53; 7-AAD positive cells (late apoptosis) (HeLa cells): significant from their corresponding negative controls; 7-AAD positive cells (late apoptosis) (T47D cells [4]): significant apoptotic effect compared to their corresponding negative controls; also recorded: significantly higher apoptosis compared to cells transfected with MTS negative controls; also recorded: induce apoptosis similarly to wt p53

Q: Which “apoptotic activity (7-AAD) on cotransfection of BFP-Bcl-XL (rescue)” value (T47D cells [5]) does the source give for “DBD-XL: EGFP, DNA binding domain of p53 and MTS from Bcl-XL” here?
A: Its value is “significantly reduced”.

Q: And the “Annexin V positive cells (apoptotic potential)” value (T47D cells [6])?
A: Its value is “significantly higher apoptotic response than p53-XL; also recorded: significantly higher than the negative control E-XL”.

Q: And the “7-AAD positive cells (late apoptosis)” value (MCF-7)?
A: The value was “significantly higher apoptotic activity compared to p53-XL”.

Q: What about the “7-AAD positive cells (late apoptosis)” value (H1373 cells [2]) of the same substance?
A: The value was “significantly higher apoptotic activity compared to p53-XL”.

Q: What about the “transformative ability (colonies, relative fluorescence units)” value (T47D cells [7]) of the same substance?
A: Its value is “significant decrease in transformative ability”.

Q: What about the “7-AAD positive cells (late apoptosis)” value (MDA-MB-231) of the same substance?
A: Its value is “significantly higher apoptotic activity compared to p53-XL”.

Q: And the caspase-9 activation (T47D cells [3])?
A: Its caspase-9 activation is “higher caspase-9 activation than E-XL”.

Q: And the “TUNEL positive cells (DNA fragmentation)” value (T47D cells [8])?
A: The value was “not statistically significant from each other”.

Q: And the “7-AAD positive cells (late apoptosis)” value (HeLa cells)?
A: Its value is “statistically significant from p53-XL”.

Q: What about the “apoptosis (7-AAD) in the absence of p53R248Wmut” value (H1373 cells [9]) of the same substance?
A: Its value is “significantly higher apoptosis compared to their negative controls E-XL and EGFP”.

Q: And the “apoptotic activity (7-AAD) when co-transfected with p53R248Wmut” value (H1373 cells [9])?
A: Its value is “capable of rescuing apoptotic activity”.

Q: And the “7-AAD positive cells (late apoptosis)” value (T47D cells [4])?
A: The value was “statistically higher than the negative control E-XL; also recorded: not statistically significant from each other”.

Q: Which “co-immunoprecipitation with Bcl-XL” value (endogenous Bcl-XL) does the source give for “p53-XL: full length p53 with EGFP on the amino terminus and the MTS from Bcl-XL (XL) on the C-terminus” here?
A: The value was “co-immunoprecipitated; also recorded: co-immunoprecipitates with endogenous Bcl-XL”.

Q: What about the “apoptotic activity (7-AAD) on cotransfection of BFP-Bcl-XL (rescue)” value (T47D cells [5]) of the same substance?
A: Its value is “significantly reduced”.

Q: What about the “Annexin V positive cells (apoptotic potential)” value (T47D cells [6]) of the same substance?
A: The value was “significantly higher than the negative control E-XL”.

Q: And the “transformative ability (colonies, relative fluorescence units)” value (T47D cells [7])?
A: Its value is “significant decrease in transformative ability”.

Q: And the caspase-9 activation (T47D cells [3])?
A: Its caspase-9 activation is “higher caspase-9 activation than E-XL; also recorded: triggers caspase-9 activation significantly more than DBD-XL”.

Q: And the “TUNEL positive cells (DNA fragmentation)” value (T47D cells [8])?
A: The value was “not statistically significant from each other”.

Q: What about the “apoptosis (7-AAD) in the absence of p53R248Wmut” value (H1373 cells [9]) of the same substance?
A: Its value is “significantly higher apoptosis compared to their negative controls E-XL and EGFP”.

Q: What about the “apoptotic activity (7-AAD) when co-transfected with p53R248Wmut” value (H1373 cells [9]) of the same substance?
A: The value was “capable of rescuing apoptotic activity”.

Q: What about the “7-AAD positive cells (late apoptosis)” value (T47D cells [4]) of the same substance?
A: Its value is “not statistically significant from each other”.
